Patent publication US12247022B2, “Combinations for treatment of NASH/NAFLD and related diseases” (Pfizer Inc., priority 2018, dated 2025)

Columns and labels:
Assay type in all cases: in vivo, rat
[1] = test system: CDAHFD fed Male Wistar Hann rats; assay: Liver stiffness by shearwave elastography, CDAHFD fed rats; details: twice daily for 6 weeks, Compound A 5 mg/kg, Compound D 30 mg/kg, or co-administration
Procedure: (§1) A randomized, vehicle-controlled, 5-parallel arm study was conducted in male Wistar-Han rats (Charles River (Boston, MA)) fed a choline-deficient and high fat diet (CDAHFD) (Research diets; A16092003) to identify differences in improvements in markers of hepatic inflammation and fibrosis when administering either Compound A or Compound D alone as monotherapy or in combination. Standard laboratory conditions were used to house 60 rats (˜200 g); they were double housed and kept under 12:12-hour reverse light-dark schedule (lights off at 8:00 AM). Rats were fed choline deficient and high fat diet (CDAHFD) beginning 6-weeks prior to initiation of the study. Rats, randomized into 4 dosing groups (n=12/group), received twice daily administration of vehicle, Compound A (5 mg/kg) monotherapy, Compound D (30 mg/kg) monotherapy, or co-administration Compound A (5 mg/kg) and Compound D (30 mg/kg) for a period of 6-weeks. Animals (n=12) remaining on normal chow throughout the study and administered twice-daily vehicle were used as a control group. Blood samples were collected prior to starting compound administration and 3- and 6-week post compound administration for the assessment of circulating markers. […] Histology was assessed following 6-weeks of drug administration which corresponded to 12 weeks on the CDAHFD. […]

[2] = test system: acetyl-CoA carboxylase (ACC1); assay: Hepatic lipogenic gene expression (qPCR), Western diet fed rats: ACC1; details: Actb housekeeping gene, Day 28 liver
Procedure: (§2) A randomized, vehicle-controlled, 8-parallel arm study was conducted in male Sprague-Dawley rats (Charles River (Boston, MA)) to obtain circulating and hepatic TG levels. Standard laboratory conditions were used to house 96 rats (˜200 g); they were double housed and kept under 12:12-hour reverse light-dark schedule (lights off at 8:00 AM). Rats were randomized into chow or Western diet groups and dose groups upon arrival and were given a 14-day lead-in period on either standard rat chow or Western diet prior to the start of the study. Standard Laboratory Rodent chow diet, 5053, was from LabDiet (PMI, St Louis, Missouri). Western Diet, D12079Bi, was from Research Diets (New Brunswick, New Jersey).
(§3) Starting on Day 1 of the study, rats were dosed orally (10 mL/kg) with either vehicle control (0.5% MC (wt/volume %) in dionized water), low or high doses of Compound A (1 mg/kg or 10 mg/kg QD, respectively), low or high doses of Compound D (5 mg/kg or 30 mg/kg BID respectively), or co-administration of low doses (Compound A at 1 mg/kg QD and Compound D at 5 mg/kg BID), or co-administration of high doses (Compound A at 10 mg/kg QD and Compound D at 30 mg/kg BID) […]
(§4) Another portion of the pulverized liver was processed and analyzed for lipogenic gene expression. Rat taqman probes against ACC1, FASN, SCD1, PCSK9 and SREBP-1c were all assessed using Actb as housekeeping gene on qPCR.

[3] = test system: alpha smooth muscle actin (αSMA); assay: Hepatic αSMA gene expression (qPCR), CDAHFD fed rats; details: twice daily for 6 weeks, Compound A 5 mg/kg, Compound D 30 mg/kg, or co-administration, Actb
Procedure: as §1, with “6-weeks.” for “6-weeks. Animals (n=12) remaining on normal chow throughout the study and administered twice-daily vehicle were used as a control group. Blood samples were collected prior to starting compound administration and 3- and 6-week post compound administration for the assessment of circulating markers.”
(§5) Following the 12-weeks on CDAHFD, the animals were sacrificed by CO2 asphyxiation. […] A portion of the pulverized liver sample from each animal was processed and analyzed for gene expression markers of fibrogenesis. Rat taqman probes against […]SMA and COL1A1 were all assessed using Actb as housekeeping gene on qPCR.

SCD1 = assay: Hepatic lipogenic gene expression (qPCR), Western diet fed rats: SCD1; details: Actb housekeeping gene, Day 28 liver
Procedure: as §2, §3, §4

[4] = test system: Western diet fed Sprague Dawley rats; assay: Fed plasma triglyceride (TG), Western diet fed rats, oral dosing; details: 2 hours post dose; for increase in plasma TG in the fed state, relative to vehicle-administered Western diet fed rats: oral monotherapy; for reduction of plasma TG in the fed state, relative to vehicle-administered Western diet fed rats: oral
Procedure: as §2
For these studies, vehicle was prepared to make a 0.5% (wt/volume) of methyl cellulose (MC, Sigma Aldrich; 274429) in deionized water. The stock solutions with either Compound A (prepared from the tris salt) or Compound D were prepared with the respective compound to provide a concentration such that 10 ml of the solution would deliver the desired mg/kg dosage amount, where the average weight of the rats used was about 200 g.
Starting on Day 1 of the study, rats were dosed orally (10 mL/kg) with either vehicle control (0.5% MC (wt/volume %) in dionized water), low or high doses of Compound A (1 mg/kg or 10 mg/kg QD, respectively), low or high doses of Compound D (5 mg/kg or 30 mg/kg BID respectively), or co-administration of low doses (Compound A at 1 mg/kg QD and Compound D at 5 mg/kg BID), or co-administration of high doses (Compound A at 10 mg/kg QD and Compound D at 30 mg/kg BID)
Fed plasma analytes: Blood for determining fed plasma TG concentrations was collected 2 hours post dose (2 hours into the dark cycle) via lateral tail vein, transferred to BD Microtainer tubes coated with dipotassium ethylenediaminetetraacetic acid (K2EDTA) (PN365974), and centrifuged at 4° C. The resulting plasma samples were then analyzed on a Siemens Chemistry XPT clinical analyzer (Malven, PA) using Siemens triglycerides_2 assay reagents (ref 10335892).

COL1A1 = assay: Hepatic COL1A1 gene expression (qPCR), CDAHFD fed rats; details: twice daily for 6 weeks, Compound A 5 mg/kg, Compound D 30 mg/kg, or co-administration, Actb
Procedure: as §1, with “6-weeks.” for “6-weeks. Animals (n=12) remaining on normal chow throughout the study and administered twice-daily vehicle were used as a control group. Blood samples were collected prior to starting compound administration and 3- and 6-week post compound administration for the assessment of circulating markers.”
as §5

[5] = test system: proprotein convertase subtilisin/kexin type 9 (PCSK9); assay: Hepatic lipogenic gene expression (qPCR), Western diet fed rats: PCSK9; details: Actb housekeeping gene, Day 28 liver
Procedure: as §2, §3, §4

[6] = test system: sterol regulatory element-binding protein 1c (SREBP-1c); assay: Hepatic lipogenic gene expression (qPCR), Western diet fed rats: SREBP-1c; details: Actb housekeeping gene, Day 28 liver
Procedure: as §2, §3, §4

COc1cc(C(=O)N2CCC3(CC2)CC(=O)c2c(cnn2C(C)C)C3)cc(-c2ccc(C(=O)O)cc2)n1 [Compound A, 4-(4-(1-isopropyl-7-oxo-1,4,6,7-tetrahydrospiro[indazole-5,4′-piperidine]-1′-carbonyl)-6-methoxypyridin-2-yl)benzoic acid]
liver stiffness (shearwave elastography, kPa) [1]: reduced liver stiffness | hepatic ACC1 gene expression relative to Western Diet fed and vehicle treated animals [2]: trended to further increase | hepatic αSMA gene expression [3]: reduced | hepatic SCD1 gene expression relative to Western Diet fed and vehicle treated animals (SCD1): trended to further increase | increase in plasma TG in the fed state, relative to vehicle-administered Western diet fed rats ([4]; high dose (Compound A 10 mg/kg QD)): 1.3 fold | increase in plasma TG in the fed state, relative to vehicle-administered Western diet fed rats ([4]; low dose (Compound A 1 mg/kg QD)): 1.7 fold | hepatic collagen A1A (COL1A1) gene expression (COL1A1): reduced

CCOc1cccnc1Oc1cncc(-c2ncc(C(=O)N[C@H]3CCOC3)cn2)c1 [Compound D, (S)-2-(5-((3-ethoxypyridin-2-yl)oxy)pyridin-3-yl)-N-(tetrahydrofuran-3-yl)pyrimidine-5-carboxamide]
hepatic PCSK9 gene expression relative to Western Diet fed and vehicle treated animals [5]: decreased expression | liver stiffness (shearwave elastography, kPa) [1]: reduced liver stiffness | hepatic ACC1 gene expression relative to Western Diet fed and vehicle treated animals [2]: decreased expression | hepatic αSMA gene expression [3]: reduced | hepatic SCD1 gene expression relative to Western Diet fed and vehicle treated animals (SCD1): decreased expression | reduction of plasma TG in the fed state, relative to vehicle-administered Western diet fed rats ([4]; high dose (Compound D 30 mg/kg BID; co-administration: Compound A 10 mg/kg QD and Compound D 30 mg/kg BID)): 63% | reduction of plasma TG in the fed state, relative to vehicle-administered Western diet fed rats ([4]; low dose (Compound D 5 mg/kg BID; co-administration: Compound A 1 mg/kg QD and Compound D 5 mg/kg BID)): 55% | hepatic SREBP1 gene expression relative to Western Diet fed and vehicle treated animals [6]: decreased expression | hepatic collagen A1A (COL1A1) gene expression (COL1A1): reduced
